Converted amounts (≈) assume the structure as drawn.
Tests used:
E. faecalis ATCC 29212 = test: MIC, microdilution method (9.1); format: cell-based, Enterococcus faecalis; conditions: Enterococcus faecalis, ATCC29212, 18 h, read-out: MIC
Protocol: (§1) The microdilution method recommended by the Clinical and Laboratory Standard Institute [M07-A8, Vol. 29, No. 2] was used. The activity of indolic compounds was tested against 29 bacterial strains belonging to 17 different species and 12 different genera (Staphylococcus, Streptococcus, Enterococcus, Listeria, Bacillus, Haemophilus, Escherichia, Klebsiella, Enterobacter, Serratia, Pseudomonas, and Acinetobacter). Bacterial inocula were prepared in Mueller Hinton broth (MH2, bioMérieux, Marcy L'Etoile, France), supplemented with 10% sheep blood for fastidious species (i.e., Streptococcus pneumoniae and Haemophilus influenzae). They were dispensed in 96 well microtiter plates (5×10^5 CFU/ml of final inoculum). Indolic compounds were added to the wells as to obtain two-fold serial concentrations (0.50-128 mg/L of final concentrations). Plates were incubated at 37° C. in ambient air, or at 37° C. in 5% CO2 enriched atmosphere for fastidious species. […] Drug-free cultures served as growth controls. Cultures receiving gentamicin, ciprofloxacin or cefotaxime served as positive controls.

[1] = tested on: S. agalactiae (group B) ATCC 12400; test: MIC, microdilution method (9.1); format: cell-based, Streptococcus agalactiae; conditions: Streptococcus agalactiae, ATCC12400, 18 h, read-out: MIC
Protocol: as §1

S. mitis CIP 103335 = test: MIC, microdilution method (9.1); format: cell-based, Streptococcus mitis; conditions: Streptococcus mitis, CIP103335, 18 h, read-out: MIC
Protocol: as §1

[2] = tested on: S. pyogenes (group A) CIP 104226; test: MIC, microdilution method (9.1); format: cell-based, Streptococcus pyogenes; conditions: Streptococcus pyogenes, CIP104226, 18 h, read-out: MIC
Protocol: as §1

[3] = tested on: Pseudomonas aeruginosa CIP 5933; test: MIC, microdilution method (9.1); format: cell-based; conditions: CIP5933, 18 h, read-out: MIC
Protocol: as §1

[4] = tested on: Escherichia coli ATCC 25922; test: MIC, microdilution method (9.1); format: cell-based; conditions: ATCC25922, 18 h
Protocol: as §1

[5] = tested on: Listeria innocua CIP 80.11; test: MIC, microdilution method (9.1); format: cell-based; conditions: CIP80, 18 h, read-out: MIC
Protocol: as §1

[6] = tested on: Acinetobacter baumanii ATCC 19606; test: MIC, microdilution method (9.1); format: cell-based; conditions: Acinetobacter baumannii, ATCC19606, 18 h, read-out: MIC
Protocol: as §1

S. pneumoniae ATCC 49619 = test: MIC, microdilution method (9.1); format: cell-based; conditions: Streptococcus pneumoniae, ATCC49619, 10% sheep blood, 5% CO2, 18 h
Protocol: as §1

[7] = tested on: Bacillus subtilis CIP 5262; test: MIC, microdilution method (9.1); format: cell-based; conditions: CIP5262, 18 h, read-out: MIC
Protocol: as §1

[8] = tested on: Klebsiella pneumoniae API ATCC 35657; test: MIC, microdilution method (9.1); format: cell-based; conditions: ATCC35657, 18 h, read-out: MIC
Protocol: as §1

[9] = tested on: Haemophilus influenzae ATCC 49766; test: MIC, microdilution method (9.1); format: cell-based; conditions: ATCC49766; Haemophilus influenzae ATCC 49766; 10% sheep blood, 5% CO2; 18 h; read-out: MIC
Protocol: as §1

[10] = tested on: Enterobacter cloacae ATCC13047; test: MIC, microdilution method (9.1); format: cell-based; conditions: 18 h
Protocol: as §1

[11] = tested on: Serratia marcescens CIP 103551; test: MIC, microdilution method (9.1); format: cell-based; conditions: CIP103551, 18 h
Protocol: as §1

[12] = tested on: S. aureus ATCC 106414 (VISA); test: MIC, microdilution method (9.1); format: cell-based, Staphylococcus aureus; conditions: Staphylococcus aureus, read after 18 h, read-out: MIC
Protocol: as §1

S. aureus SA-1199B = test: MIC, microdilution method (9.1); format: cell-based, Staphylococcus aureus; conditions: Staphylococcus aureus, SA1199B, 18 h
Protocol: as §1

S. aureus CIP 103428 = test: MIC, microdilution method (9.1); format: cell-based, Staphylococcus aureus; conditions: Staphylococcus aureus, CIP103428, read after 18 h, read-out: MIC
Protocol: as §1

S. aureus ATCC 9144 = test: MIC, microdilution method (9.1); format: cell-based, Staphylococcus aureus; conditions: Staphylococcus aureus, ATCC9144, read after 18 h, read-out: MIC
Protocol: as §1

S. aureus CIP 65.6 = test: MIC, microdilution method (9.1); format: cell-based, Staphylococcus aureus; conditions: Staphylococcus aureus, CIP65, read after 18 h, read-out: MIC
Protocol: as §1

S. aureus ATCC 6538 = test: MIC, microdilution method (9.1); format: cell-based, Staphylococcus aureus; conditions: Staphylococcus aureus, ATCC6538, read after 18 h, read-out: MIC
Protocol: as §1

[13] = tested on: S. aureus ATCC 33592 (MRSA); test: MIC, microdilution method (9.1); format: cell-based, Staphylococcus aureus; conditions: Staphylococcus aureus, read after 18 h, read-out: MIC
Protocol: as §1

S. aureus ATCC 29213 = test: MIC, microdilution method (9.1); format: cell-based, Staphylococcus aureus; conditions: Staphylococcus aureus, ATCC29213, read after 18 h, read-out: MIC
Protocol: as §1

S. aureus ATCC 25923 = test: MIC, microdilution method (9.1); format: cell-based, Staphylococcus aureus; conditions: Staphylococcus aureus, ATCC25923, read after 18 h, read-out: MIC
Protocol: as §1

[14] = tested on: S. aureus CIP 65.25 (MRSA); test: MIC, microdilution method (9.1); format: cell-based, Staphylococcus aureus; conditions: Staphylococcus aureus, read after 18 h, read-out: MIC
Protocol: as §1

[15] = tested on: S. epidermidis CIP 103627; test: MIC, microdilution method (9.1); format: cell-based, Staphylococcus epidermidis; conditions: Staphylococcus epidermidis, CIP103627, read after 18 h, read-out: MIC
Protocol: as §1

[16] = tested on: S. epidermidis ATCC 12228; test: MIC, microdilution method (9.1); format: cell-based, Staphylococcus epidermidis; conditions: Staphylococcus epidermidis, ATCC12228, read after 18 h, read-out: MIC
Protocol: as §1

S. epidermidis CIP 81.55 = test: MIC, microdilution method (9.1); format: cell-based, Staphylococcus epidermidis; conditions: Staphylococcus epidermidis, CIP81, read after 18 h, read-out: MIC
Protocol: as §1

E. faecium CIP 54.32 = test: MIC, microdilution method (9.1); format: cell-based, Enterococcus faecium; conditions: Enterococcus faecium, CIP54, 18 h, read-out: MIC
Protocol: as §1

[17] = tested on: KB (human mouth carcinoma); test: In vitro cytotoxicity; format: cell-based; conditions: read-out: % of cellular growth inhibition; for inhibition at 10 µM: 10^−5 M; for inhibition at 1 µM: 10^−6 M
Protocol: (§2) In vitro cytotoxicity was assayed on three cell lines—KB (human mouth carcinoma), MCR5 (human lung fibroblast) and HCT116 (human colon tumor). Results are presented in table IV as % of cellular growth inhibition in presence of 10^−5 M and 10^−6 M of the tested bis-indolic derivatives.

[18] = tested on: HCT116 (human colon tumor); test: In vitro cytotoxicity; format: cell-based; conditions: read-out: % of cellular growth inhibition; for inhibition at 10 µM: HCT-116, 10^−5 M; for inhibition at 1 µM: HCT-116, 10^−6 M
Protocol: as §2

[19] = tested on: MRC5 (human lung fibroblast); test: In vitro cytotoxicity; format: cell-based; conditions: read-out: % of cellular growth inhibition; for inhibition at 10 µM: 10^−5 M; for inhibition at 1 µM: 10^−6 M
Protocol: as §2

S. pneumoniae ATCC 6303 = test: MIC, microdilution method (9.1); format: cell-based, Streptococcus pneumoniae; conditions: Streptococcus pneumoniae, ATCC6303, 10% sheep blood, 5% CO2, 18 h, read-out: MIC
Protocol: as §1

[20] = tested on: HCT116 (human colon tumor); test: In vitro cytotoxicity; format: cell-based; conditions: HCT-116, HCT116, from 100 μM to 0.005 μM in DMSO, duplicate

`CC(C)(C)OC(=O)NCC(NC(=O)c1c[nH]c2ccc(Br)cc12)c1c[nH]c2cc(Br)ccc12` (centres unmarked) [Compound 3h, tert-Butyl (2-(6-bromo-1H-indol-3-yl)-2-(5-bromo-1H-indolyl-3-carboxamido)ethyl)carbamate] was tested, and the MIC (E. faecalis ATCC 29212) was over 128 µg/mL, the MIC [1] was 32 µg/mL (≈ 55.5 µM) and the MIC (S. mitis CIP 103335) was 32 µg/mL (≈ 55.5 µM). It also gave an MIC [2] of 32 µg/mL (≈ 55.5 µM), an MIC [3] of over 128 µg/mL and an MIC [4] of over 128 µg/mL. For the same compound, the MIC [5] was 32 µg/mL (≈ 55.5 µM), the MIC [6] was over 128 µg/mL and the MIC (S. pneumoniae ATCC 49619) was 32 µg/mL (≈ 55.5 µM). It also gave an MIC [7] of 32 µg/mL (≈ 55.5 µM), an MIC [8] of over 128 µg/mL and an MIC [9] of 16 µg/mL (≈ 27.8 µM). The MIC [10] was over 128 µg/mL, the MIC [11] was over 128 µg/mL and the MIC [12] was 1 µg/mL (≈ 1.74 µM). For the same compound, the MIC (S. aureus SA-1199B) was 2 µg/mL (≈ 3.47 µM), the MIC (S. aureus CIP 103428) was 2 µg/mL (≈ 3.47 µM) and the MIC (S. aureus ATCC 9144) was 1 µg/mL (≈ 1.74 µM). For the same compound, the MIC (S. aureus CIP 65.6) was 2 µg/mL (≈ 3.47 µM), the MIC (S. aureus ATCC 6538) was 1 µg/mL (≈ 1.74 µM) and the MIC [13] was 2 µg/mL (≈ 3.47 µM). The MIC (S. aureus ATCC 29213) was 1 µg/mL (≈ 1.74 µM), the MIC (S. aureus ATCC 25923) was 1 µg/mL (≈ 1.74 µM) and the MIC [14] was 1 µg/mL (≈ 1.74 µM). It also gave an MIC [15] of 2 µg/mL (≈ 3.47 µM), an MIC [16] of 1 µg/mL (≈ 1.74 µM) and an MIC (S. epidermidis CIP 81.55) of 1 µg/mL (≈ 1.74 µM). For the same compound, the MIC (E. faecium CIP 54.32) was 32 µg/mL (≈ 55.5 µM), the inhibition at 10 µM [17] was 100 ± 1% and the inhibition at 1 µM [17] was 0%. For the same compound, the inhibition at 10 µM [18] was 100 ± 3%, the inhibition at 1 µM [18] was 0% and the inhibition at 10 µM [19] was 92 ± 1%. For the same compound, the inhibition at 1 µM [19] was 0%, the MIC (S. pneumoniae ATCC 6303) was 32 µg/mL (≈ 55.5 µM) and the IC50 ([20]; first value) was 3330 nM. For the same compound, the IC50 ([20]; second value) was 4110 nM.

`CC(C)(C)OC(=O)NCC(NC(=O)c1c[nH]c2cc(Br)ccc12)c1c[nH]c2cc(Br)ccc12` (centres unmarked) [Compound 3i, tert-Butyl (2-(6-bromo-1H-indol-3-yl)-2-(6-bromo-1H-indolyl-3-carboxamido)ethyl)carbamate] was tested, and the MIC (E. faecalis ATCC 29212) was over 128 µg/mL, the MIC [1] was 32 µg/mL (≈ 55.5 µM) and the MIC (S. mitis CIP 103335) was 64 µg/mL (≈ 111 µM). It also gave an MIC [2] of 32 µg/mL (≈ 55.5 µM), an MIC [3] of over 128 µg/mL and an MIC [4] of over 128 µg/mL. For the same compound, the MIC [5] was 32 µg/mL (≈ 55.5 µM), the MIC [6] was over 128 µg/mL and the MIC (S. pneumoniae ATCC 49619) was 32 µg/mL (≈ 55.5 µM). The MIC [7] was 64 µg/mL (≈ 111 µM), the MIC [8] was over 128 µg/mL and the MIC [9] was 16 µg/mL (≈ 27.8 µM). The MIC [10] was over 128 µg/mL, the MIC [11] was over 128 µg/mL and the MIC [12] was 1 µg/mL (≈ 1.74 µM). The MIC (S. aureus SA-1199B) was 1 µg/mL (≈ 1.74 µM), the MIC (S. aureus CIP 103428) was 1 µg/mL (≈ 1.74 µM) and the MIC (S. aureus ATCC 9144) was 2 µg/mL (≈ 3.47 µM). The MIC (S. aureus CIP 65.6) was 1 µg/mL (≈ 1.74 µM), the MIC (S. aureus ATCC 6538) was 2 µg/mL (≈ 3.47 µM) and the MIC [13] was 1 µg/mL (≈ 1.74 µM). The MIC (S. aureus ATCC 29213) was 2 µg/mL (≈ 3.47 µM), the MIC (S. aureus ATCC 25923) was 2 µg/mL (≈ 3.47 µM) and the MIC [14] was 1 µg/mL (≈ 1.74 µM). The MIC [15] was 2 µg/mL (≈ 3.47 µM), the MIC [16] was 2 µg/mL (≈ 3.47 µM) and the MIC (S. epidermidis CIP 81.55) was 2 µg/mL (≈ 3.47 µM). For the same compound, the MIC (E. faecium CIP 54.32) was 64 µg/mL (≈ 111 µM), the inhibition at 10 µM [17] was 100 ± 1% and the inhibition at 1 µM [17] was 3%. It also gave an inhibition at 10 µM [18] of 91 ± 1%, an inhibition at 1 µM [18] of 4% and an inhibition at 10 µM [19] of 91 ± 7%. The inhibition at 1 µM [19] was 10%, the MIC (S. pneumoniae ATCC 6303) was 32 µg/mL (≈ 55.5 µM) and the IC50 ([20]; first value) was 1900 nM. It also gave an IC50 ([20]; second value) of 2100 nM.

From US9676715B2, “Bis-indolic derivatives, a process for preparing the same and their uses as a drug” (UNIVERSITE JOSEPH FOURIER, priority 2011, dated 2017)
